Key:
[1] = system: CAL-62 tumor; assay: CAL-62 subcutaneous xenograft treatment experiment with H&E and TUNEL staining; type: in vivo, BALB/C nude mice; conditions: tumor sections after treatment, compared to PBS group
Method: (§1) To reduce the unnecessary thyroid uptake of ^131I, before the in vivo experiments, all nude mice were fed potassium iodide in a concentration of 0.1% for 3 days to saturate the thyroid. CAL-62 tumor-bearing mice were randomly divided into four groups (n = 5 per group) that received one of the following treatments: PBS, F1 only, ^131I-F1, ^131I only. The mice were injected intratumorally with 100 µl PBS containing 8 µg of F1 peptide, 200 µCi of ^131I or 8 µg of F1 peptide labeled with 200 µCi ^131I every 3 days for a total of three times. Then, 3 days after the final treatment, the mice were sacrificed, and the tumors were isolated and weighed.

[2] = Body weight of CAL-62 tumor-bearing mice under treatment; type: in vivo, BALB/C nude mice; conditions: intratumoral, 8 µg F1 and/or 200 µCi 131I every 3 days, three times, n = 5, mean ± SD
Method: as §1
Next, we studied whether F1 was able to inhibit CAL-62 cell growth in vivo. Nude mice were subcutaneously injected with 5 × 10^5 CAL-62 cells. When the tumor diameters were close to 6 mm, the mice were treated with 100 µl PBS containing 8 µg of F1 peptide, 200 µCi of ^131I or 8 µg of F1 peptide labeled with 200 µCi ^131I every 3 days for a total of three times. […] The mice were euthanized, and the tumors were isolated and weighed.

[3] = system: cervical cancer cell (TC-1); conditions: 30 μg of peptide; cited from earlier work
Text: First, ^131I-F1 was successfully synthesized using the chloramine-T method. […] Furthermore, a subcutaneous xenograft model was used to investigate the antitumor activity of ^131I-F ...

Row | Compound | H&E staining of tumors (ablation/necrosis of tumor cells) [1] | Weight of the mice three days after the final treatment [2] | Inhibitory effect on TC-1 in vivo [3]
1 | [131I-].[Na+] [^131I, iodine-131] | only a few necrosis events | 16.43 ± 1.386 g | 
2 | caerin 1.9 [F3] |  |  | significant inhibitory effect
